Reference: patent publication US8183262B2, “Pyridine derivatives as mGluR2 antagonists” (Hoffmann-La Roche Inc., priority 2007, dated 2012)

SMILES	melting point
Cc1cc(-c2ccc(C(F)(F)F)cc2)cc(-c2cccc(-c3cncc(S(=O)(=O)NC(C)(C)CO)c3)c2)n1 [Example 257, 5-{3-[6-Methyl-4-(4-trifluoromethyl-phenyl)-pyridin-2-yl]-phenyl}-pyridine-3-sulfonic acid (2-hydroxy-1,1-dimethyl-ethyl)-amide]	105 °C (dec.)
CCOc1cc(-c2cc(C(F)(F)F)nc(-c3cccc(-c4ccc(N)nc4)c3)n2)ccc1C(F)(F)F [Example 93, 5-{3-[4-(3-Ethoxy-4-trifluoromethyl-phenyl)-6-trifluoromethyl-pyrimidin-2-yl]-phenyl}-pyridin-2-ylamine]	208 °C
Cc1cc(-c2ccc(C(F)(F)F)cc2)cc(-c2cccc(-c3cccc(S(=O)(=O)NCCOCCO)c3)n2)n1 [Example 372, N-[2-(2-Hydroxy-ethoxy)-ethyl]-3-[6′-methyl-4′-(4-trifluoromethyl-phenyl)-[2,2′]bipyridinyl-6-yl]-benzenesulfonamide]	123 °C
Cc1cc(-c2ccc(C(F)(F)F)cc2)cc(-c2ccnc(-c3ccc(S(N)(=O)=O)s3)c2)n1 [Example 316, 5-[6-Methyl-4-(4-trifluoromethyl-phenyl)-[2,4′]bipyridinyl-2′-yl]-thiophene-2-sulfonic acid amide]	> 250 °C
NS(=O)(=O)c1cccc(-c2cc(-c3nc(-c4ccc(C(F)(F)F)cc4F)cc(C(F)(F)F)n3)ccn2)c1 [Example 450, 3-{4-[4-(2-Fluoro-4-trifluoromethyl-phenyl)-6-trifluoromethyl-pyrimidin-2-yl]-pyridin-2-yl}-benzenesulfonamide]	210 °C
NS(=O)(=O)c1cccc(-c2cccc(-c3nc(-c4ccc(C(F)(F)F)c(F)c4)cc(C(F)(F)F)n3)c2)c1 [Example 460, 3′-[4-(3-Fluoro-4-trifluoromethyl-phenyl)-6-trifluoromethyl-pyrimidin-2-yl]-biphenyl-3-sulfonic acid amide]	227.5 °C
Cc1cc(-c2ccc(C(F)(F)F)cc2)cc(-c2cccc(-c3cccc(S(=O)(=O)N4CCOCC4)c3)n2)n1 [Example 373, 6-Methyl-6′-[3-(morpholine-4-sulfonyl)-phenyl]-4-(4-trifluoromethyl-phenyl)-[2,2′]bipyridinyl]	216 °C
Cc1cc(-c2ccc(Cl)c(Cl)c2)nc(-c2ccnc(-c3ccc(N)nc3)c2)n1 [Example 146, 4-[4-(3,4-Dichloro-phenyl)-6-methyl-pyrimidin-2-yl]-[2,3′]bipyridinyl-6′-ylamine]	205 °C
FC(F)(F)c1ccc(-c2cc(C(F)(F)F)nc(-n3cccc3)n2)cc1 [Example 4, 2-Pyrrol-1-yl-4-trifluoromethyl-6-(4-trifluoromethyl-phenyl)-pyrimidine]	120.5 °C
CCOc1cc(-c2cc(C(F)(F)F)nc(-c3nc(-c4ccc(S(N)(=O)=O)cc4)no3)n2)ccc1C(F)(F)F [Example 89, 4-{5-[4-(3-Ethoxy-4-trifluoromethyl-phenyl)-6-trifluoromethyl-pyrimidin-2-yl]-[1,2,4]oxadiazol-3-yl}-benzenesulfonamide]	250.5 °C
Cc1cc(-c2ccc(C(F)(F)F)cc2)nc(-c2ccnc(-c3cccc(S(=O)(=O)NC(C)(C)C)c3)c2)c1 [Example 297, N-tert-Butyl-3-[4-methyl-6-(4-trifluoromethyl-phenyl)-[2,4′]bipyridinyl-2′-yl]-benzenesulfonamide]	189 °C
CCc1cc(-c2ccc(C(F)(F)F)cc2)cc(-c2cccc(-c3ccc(N)nc3)c2)n1 [Example 264, 5-{3-[6-Ethyl-4-(4-trifluoromethyl-phenyl)-pyridin-2-yl]-phenyl}-pyridin-2-ylamine]	74 °C
Cc1cc(-c2cc(C(F)(F)F)nc(-c3ccnc(-c4ccc(S(N)(=O)=O)s4)c3)n2)ccc1Cl [Example 414, 5-{4-[4-(4-Chloro-3-methyl-phenyl)-6-trifluoromethyl-pyrimidin-2-yl]-pyridin-2-yl}-thiophene-2-sulfonic acid amide]	280 °C
O=S(=O)(c1cccc(-c2cc(-c3nc(-c4ccc(C(F)(F)F)cc4)cc(C(F)(F)F)n3)ccn2)c1)N(CCO)CCO [Example 383, N,N-Bis-(2-hydroxy-ethyl)-3-{4-[4-trifluoromethyl-6-(4-trifluoromethyl-phenyl)-pyrimidin-2-yl]-pyridin-2-yl}-benzenesulfonamide]	186 °C
NS(=O)(=O)c1cccc(-c2cccc(-c3nc(-c4ccc(C(F)(F)F)cc4)cc(C(F)(F)F)n3)c2)c1 [Example 157, 3′-[4-Trifluoromethyl-6-(4-trifluoromethyl-phenyl)-pyrimidin-2-yl]-biphenyl-3-sulfonic acid amide]	267 °C
Nc1cc(-c2noc(-c3nc(-c4ccc(C(F)(F)F)cc4)cc(C(F)(F)F)n3)n2)ccn1 [Example 12, 4-{5-[4-Trifluoromethyl-6-(4-trifluoromethyl-phenyl)-pyrimidin-2-yl]-[1,2,4]oxadiazol-3-yl}-pyridin-2-ylamine]	223.5 °C
NS(=O)(=O)c1ccc(-c2cn(-c3nc(-c4ccc(Cl)cc4)cc(C(F)(F)F)n3)cn2)s1 [Example 171, 5-{1-[4-(4-Chloro-phenyl)-6-trifluoromethyl-pyrimidin-2-yl]-1H-imidazol-4-yl}-thiophene-2-sulfonic acid amide]	284 °C

SMILES	melting point
FC(F)c1cc(-c2ccc(C(F)(F)F)cc2)nc(-c2ccncc2)n1 [Example 38, 4-Difluoromethyl-2-pyridin-4-yl-6-(4-trifluoromethyl-phenyl)-pyrimidine]	132.5 °C
Nc1ccc(-c2cc(-c3nc(-c4ccc(C(F)(F)F)cc4)cc(C(F)F)n3)ccn2)cn1 [Example 88, 4-[4-Difluoromethyl-6-(4-trifluoromethyl-phenyl)-pyrimidin-2-yl]-[2,3′]bipyridinyl-6′-ylamine]	210 °C
FC(F)(F)c1cc(-c2ccc(Cl)cc2)nc(-n2cccc2)n1 [Example 6, 4-(4-Chloro-phenyl)-2-pyrrol-1-yl-6-trifluoromethyl-pyrimidine]	128.5 °C
Cc1cc(-c2ccc(C(F)(F)F)cc2)cc(-c2cccc(-c3cccc(S(=O)(=O)NC(C)(C)C)c3)n2)n1 [Example 261, N-tert-Butyl-3-[6′-methyl-4′-(4-trifluoromethyl-phenyl)-[2,2′]bipyridinyl-6-yl]-benzenesulfonamide]	183 °C
Cc1cc(-c2ccc(C(F)(F)F)cc2)cc(-c2cccc(-c3csc(NS(=O)(=O)NC(=O)OC(C)(C)C)n3)c2)n1 [Example 344, N-(tert-Butoxycarbonyl)-N′-(4-{3-[6-methyl-4-(4-trifluoromethyl-phenyl)-pyridin-2-yl]-phenyl}-thiazol-2-yl)-sulfamide]	152 °C (dec.)
Cc1cc(-c2ccc(C(F)(F)F)cc2)cc(-c2ccnc(-c3cccc(S(=O)(=O)N4CCSCC4)c3)c2)n1 [Example 347, 6-Methyl-2′-[3-(thiomorpholine-4-sulfonyl)-phenyl]-4-(4-trifluoromethyl-phenyl)-[2,4′]bipyridinyl]	156 °C (dec.)
Cc1cc(-c2ccc(Cl)c(Cl)c2)cc(-c2ccc(-c3cnc(N)nc3)s2)n1 [Example 255, 5-{5-[4-(3,4-Dichloro-phenyl)-6-methyl-pyridin-2-yl]-thiophen-2-yl}-pyrimidin-2-ylamine]	237 °C
Cc1cc(-c2ccc(C(F)(F)F)cc2)cc(-c2cccc(-c3cccc(S(=O)(=O)N4CCS(=O)(=O)CC4)c3)n2)n1 [Example 368, 6′-[3-(1,1-Dioxo-1λ6-thiomorpholine-4-sulfonyl)-phenyl]-6-methyl-4-(4-trifluoromethyl-phenyl)-[2,2′]bipyridinyl]	230 °C (dec.)
Nc1ccc(-c2noc(-c3cc(C(F)(F)F)cc(-c4ccc(C(F)(F)F)cc4)n3)n2)cn1 [Example 238, 5-{5-[4-Trifluoromethyl-6-(4-trifluoromethyl-phenyl)-pyridin-2-yl]-[1,2,4]oxadiazol-3-yl}-pyridin-2-ylamine]	229 °C
Cc1cc(-c2cc(C(F)(F)F)nc(-n3cnc(-c4cccc(S(N)(=O)=O)c4)c3)n2)ccc1C(F)(F)F [Example 213, 3-{1-[4-(3-Methyl-4-trifluoromethyl-phenyl)-6-trifluoromethyl-pyrimidin-2-yl]-1H-imidazol-4-yl}-benzenesulfonamide]	180 °C
NS(=O)(=O)c1cccc(-c2cc(-c3nc(-c4ccc(C(F)(F)F)c(OCC(F)(F)F)c4)cc(C(F)(F)F)n3)ccn2)c1 [Example 448, 3-(4-{4-[3-(2,2,2-Trifluoro-ethoxy)-4-trifluoromethyl-phenyl]-6-trifluoromethyl-pyrimidin-2-yl}-pyridin-2-yl)-benzenesulfonamide]	211 °C
CCc1cc(-c2ccc(C(F)(F)F)cc2)cc(-c2cccc(-c3cnc(N)nc3)c2)n1 [Example 260, 5-{3-[6-Ethyl-4-(4-trifluoromethyl-phenyl)-pyridin-2-yl]-phenyl}-pyrimidin-2-ylamine]	209 °C
Cc1cc(-c2cc(C(F)(F)F)nc(-c3nc(-c4ccc(N)nc4)no3)n2)ccc1Cl [Example 107, 5-{5-[4-(4-Chloro-3-methyl-phenyl)-6-trifluoromethyl-pyrimidin-2-yl]-[1,2,4]oxadiazol-3-yl}-pyridin-2-ylamine]	199.5 °C
Cc1cc(-c2ccc(C(F)(F)F)cc2)cc(-c2cccc(-c3csc(N)n3)c2)n1 [Example 342, 4-{3-[6-Methyl-4-(4-trifluoromethyl-phenyl)-pyridin-2-yl]-phenyl}-thiazol-2-ylamine]	> 250 °C
CCOc1cc(-c2cc(C(F)(F)F)nc(-c3ccnc(-c4ccc(N)nc4)c3)n2)ccc1C(F)(F)F [Example 92, 4-[4-(3-Ethoxy-4-trifluoromethyl-phenyl)-6-trifluoromethyl-pyrimidin-2-yl]-[2,3′]bipyridinyl-6′-ylamine]	222 °C
Nc1ccc(-c2cn(-c3nc(-c4ccc(C(F)(F)F)c(OCC(F)(F)F)c4)cc(C(F)(F)F)n3)cn2)cn1 [Example 134, 5-(1-{4-[3-(2,2,2-Trifluoro-ethoxy)-4-trifluoromethyl-phenyl]-6-trifluoromethyl-pyrimidin-2-yl}-1H-imidazol-4-yl)-pyridin-2-ylamine]	285 °C
